Data reported in PMC8765781, “A platform of assays for the discovery of anti-Zika small-molecules with activity in a 3D-bioprinted outer-blood-retina model” (PLoS ONE, 2022).
Read-outs that look alike come from different tables or passages of the source.

Tested on: wild-type ZIKV (Ugandan MR766 strain) in Vero cells
Assay: ZIKV cytopathic effect (CPE) inhibition qHTS assay, CellTiter-Glo readout
Type: cell-based, Zika virus
Settings: for Emax: read-out: Max response
[1] = Zika virus, Vero, read-out: Log AC50 (M) (converted)
[2] = Zika virus, Vero, from Hill fit of the response curve, 50% of maximum activity response, 194 cherry-picked compounds, protocol name not given, read-out: AC50
[3] = Zika virus, Vero, potency in log units (Molar) from Hill fit of the response curve, 194 cherry-picked compounds, protocol name not given, read-out: Log AC50 (converted)
[4] = difference between neutral response and maximum compound response

SMILES | CC-v2 (curve class classification of the dose response curve) | Efficacy | AC50 (Zika virus, Vero) | AC50 [1] | also measured
CCCNc1ccc2ncc(-c3ccc4[nH]ncc4c3)n2n1 [NCGC00370724-05] | -2.2 | -62.08 | 5.8e-05 M | 5.8e-05 M | –
Cc1cc(C)c2nc(-c3ccccn3)cc(C(=O)Nc3ccc([S+](=O)([O-])Nc4onc(C)c4C)cc3)c2c1 [NCGC00370745-03] | – | -23.798 | 3.26e-05 M | 3.26e-05 M | –
O=C(c1cn(Cc2cncn2Cc2ccc(Br)cc2)cc1-c1cccc2ccccc12)N1CCOCC1 [NCGC00370772-05] | -2.2 | -38.989 | 3.66e-05 M | 3.66e-05 M | –
CCN(CC)C(=O)c1ccc(Nc2nc(OCC3CCCCC3)c3nc[nH]c3n2)cc1 [NCGC00370819-01] | – | -42.267 | 4.61e-05 M | 4.61e-05 M | –
Cc1nc[nH]c1C1CCN(c2nc3cccc4c3n2CCC4=O)CC1 [NCGC00370838-01] | -3 | -41.62 | 1.84e-05 M | 1.84e-05 M | –
CCCCCOc1cc2c(cc1-c1cc(/C=C/C(=O)O)ccc1O)C(C)(C)CCC2(C)C [NCGC00370868-01] | – | – | – | – | AC50 [2]: 1.84e-05 M; AC50 [3]: 1.84e-05 M; Efficacy [4]: -36.339
C[S+](=O)([O-])NC[C@H]1CC[C@H](Nc2nc3c(s2)CCSc2ccccc2-3)CC1 [NCGC00370875-01] | -3 | -44.692 | 7.31e-05 M | 7.31e-05 M | –
CC1(C)CC=C(c2cnc3ccccc3c2)c2cc(C(=O)Nc3ccc(C(=O)O)cc3)ccc21 [NCGC00370906-01] | – | -33.992 | 5.17e-05 M | 5.17e-05 M | –
CC(C)c1cccc2c(-c3ccccc3)cc(-c3ccc(-c4ccc(C(=O)O)cc4)[nH]3)nc12 [NCGC00370963-01] | -3 | -43.883 | 2.91e-05 M | 2.91e-05 M | –
O=C1N(CC2CCCCN2)CCN1c1ccccc1 (stereo not shown) [NCGC00370981-01] | -3 | -38.034 | 2.91e-05 M | 2.91e-05 M | –
CN1CC2CN(c3ccc4oc5ccccc5c(=O)c4c3)CC2C1 (stereo not shown) [NCGC00371020-01] | – | -29.929 | 3.17e-05 M | 3.17e-05 M | –
Cc1cc2sc(NC(=O)Cc3ccccc3)nc2cc1Cl [NCGC00371143-05] | – | -24.072 | 5.8e-05 M | 5.8e-05 M | –
CN(C)c1cccc(-c2c3c(=O)n(-c4ccccc4Cl)[nH]c3cc(=O)n2C)c1 [NCGC00378460-08] | – | -22.536 | 2.91e-05 M | 2.91e-05 M | –
CC(C)C(=O)c1cn(CC(=O)COc2ccc(Oc3ccccc3)cc2)c2ccc(C(=O)O)cc12 [NCGC00378619-01] | – | -17.195 | 1.3e-05 M | 1.3e-05 M | –
CCCOc1ccc([S+](=O)([O-])N2CCN(CCO)CC2)cc1-c1nc2c(CCC)cn(CC)c2c(=O)[nH]1 [NCGC00378703-02] | – | -30.503 | 5.8e-05 M | 5.8e-05 M | –
CCNC(=O)Nc1ccc(-c2nc3c(c(N4CCOC[C@@H]4C)n2)CCN(c2ncccn2)C3)cc1 [NCGC00378864-01] | – | -63.761 | 2.06e-05 M | 2.06e-05 M | –
O=C(O)C[C@H]1CC[C@H](c2ccc(-c3ccc(Nc4ccc(C(F)(F)F)nc4)cn3)cc2)CC1 [NCGC00378933-01] | -3 | -46.182 | 5.8e-05 M | 5.8e-05 M | –
Cc1cc(=O)oc2c(C=O)c(O)ccc12 [NCGC00379137-01] | -2.2 | -45.072 | 5.8e-05 M | 5.8e-05 M | –
Nc1cccc(CNC(=O)c2ccc(Oc3ccc(OCc4cccc(F)c4)cc3)nc2)c1 [NCGC00379156-01] | – | -30.412 | 7.31e-05 M | 7.31e-05 M | –
C=C1C(=O)CC2OC2(C)CC2OC(=O)C(=C)C2C(O)C1OC(=O)/C(C)=C\C (stereo not shown) [NCGC00380095-01] | -3 | -52.521 | 4.53e-05 M | 4.53e-05 M | –
CC(=O)OCC1OC(O[C@H]2CC[C@@]3(C)C(CC[C@]4(C)C3CC=C3[C@@H]5CC(C)(C)CC[C@]5(C(=O)O)CC[C@]34C)[C@]2(C)CO)C(O)C(O)C1OC1OC(C)C(O)C(OC2OCC(O)C(O)C2O)C1O (stereo partly shown) [NCGC00380575-01] | – | -26.099 | 7.78e-06 M | 7.78e-06 M | –

SMILES | CC-v2 (curve class classification of the dose response curve) | Efficacy | AC50 (Zika virus, Vero) | AC50 [1] | also measured
C/C=C(\C)C(=O)O[C@H]1C=CC(=O)O[C@H]1/C=C/[C@@H](O)[C@H](C)O [NCGC00380589-01] | – | -37.007 | 6.51e-05 M | 6.51e-05 M | –
CC1(C)C=CN2C(=O)C3=CCCN3C(=O)[C@@H]2C[C@@]12Nc1ccccc1C2=O [NCGC00380729-01] | – | -25.178 | 4.53e-05 M | 4.53e-05 M | –
CC(=O)OC[C@]12C[C@H](O)C(C)=C[C@H]1O[C@@H]1[C@H](O)[C@@H](O)[C@@]2(C)[C@]12CO2 [NCGC00380760-01] | -1.2 | -57.268 | – | – | Log AC50 (M): -4.894 M; Max Resp: -47.163; AC50 (read-out: AC50): 1.28e-05 M
CC1CCC2C(=CCC(O)C2(C)C)C1(C)Cc1c(O)cc(CO)c(C=O)c1O (stereo not shown) [NCGC00380764-01] | -2.2 | -71.029 | 4.04e-05 M | 4.04e-05 M | –
CO[C@H]1/C=C/C=C/C=C/C[C@H](OC(=O)[C@@H](C)NC(=O)C2CCCCC2)[C@H](C)[C@@H](O)/C(C)=C\CCc2cc(O)cc(c2)NC(=O)C1 [NCGC00380800-01] | -1.2 | -73.026 | 5.44e-06 M | 5.44e-06 M | –
C/C(=C\CCC(C)CCO)C(=O)OC1(C)CCC2C(C(=O)O)=COC(OC3OC(CO)C(O)C(O)C3O)C21 (stereo not shown) [NCGC00380886-01] | – | -68.93 | 1.12e-05 M | – | Curve class: -3; AC50 (Zika virus, Vero, read-out: Log AC50 (converted)): 1.12e-05 M; Emax (Zika virus, Vero): -7.99%
C=C(CO)C(=O)O[C@H]1C/C(C)=C/CC/C(CO)=C/[C@H]2OC(=O)C(=C)[C@H]12 [NCGC00380889-01] | -3 | -76.574 | 1.43e-05 M | 1.43e-05 M | –
COc1c2c(c(C)c3c1C(=O)OC3)OC1(C)CC(O)C34OC(OC)(CCC3(C)C1C2)OC4(C)CO (stereo not shown) [NCGC00380890-01] | -3 | -69.031 | 1.42e-05 M | 1.42e-05 M | –
COc1cc2c(cc1O)C(c1ccc(O)cc1)C(C)C(C)C2 (stereo not shown) [NCGC00380925-01] | -3 | -32.851 | 6.51e-05 M | 6.51e-05 M | –
C=C(C)C(=O)OC1CC2(C)OC(=CC2=O)C(=C)CC2OC(=O)C(=C)C12 (stereo not shown) [NCGC00381113-01] | – | – | – | – | AC50 [2]: 2.02e-05 M; AC50 [3]: 2.02e-05 M; Efficacy [4]: -29.164
C=C(C)C1CCC(C)C12CC(O)C1(C)OC1C2OC(=O)C(N)CCC(=O)O (stereo not shown) [NCGC00381118-01] | -3 | -55.082 | 2.02e-05 M | 2.02e-05 M | –
CC(=O)CC1CCC(C(C)C(=O)OCC(O)CO)O1 (stereo not shown) [NCGC00381119-01] | -3 | -53.159 | 2.91e-05 M | 2.91e-05 M | –
CC1=CC2(O)/C=C/C(C)(O)C(O)C(O)/C=C/C(=O)OC23C(=O)NC(CC(C)C)C3C1C (stereo not shown) [NCGC00381121-01] | -3 | -74.853 | 1.59e-05 M | 1.59e-05 M | –
C[C@@H]1CCC2C(C)(C)[C@H](O)CC[C@]2(C)[C@@]12Cc1c(O)cc3c(c1O2)CN(CCO)C3=O (stereo partly shown) [NCGC00381123-01] | -3 | -75.159 | 8.93e-06 M | 8.93e-06 M | –
C/C=C(\C)C(=O)OC1CC2C(CC=C3CC(OC4CC(OC)C(OC5CC(OC)C(OC6CC(OC)C(OC7CC(OC)C(OC8CC(OC)C(OC9OC(CO)C(O)C(O)C9O)C(C)O8)C(C)O7)C(C)O6)C(C)O5)C(C)O4)CCC32C)C2(O)CCC(C(C)=O)C12C (stereo not shown) [NCGC00381127-01] | – | – | – | – | AC50 (Zika virus, Vero, primary qHTS curve fit, 194 cherry-picked compounds, log10 of molar AC50, read-out: Log AC50 (converted)): 4.36e-06 M; AC50 (Zika virus, Vero, primary qHTS curve fit, values match uM against the Log AC50 column, read-out: AC50): 4.36e-06 M; Emax (Zika virus, Vero, response at highest concentration): 4.53%; Curve class (qHTS curve class, negative sign = inhibitory curve): -3
CC(C)(O)C(O)C(=O)OCc1ccc(O[C@@H]2O[C@H](CO)[C@@H](O)[C@H](O)[C@H]2O)cc1 (stereo partly shown) [NCGC00381128-01] | -3 | -65.299 | 1e-05 M | 1e-05 M | –
CC1=CC2/C=C(\C)CCC(O)C3OC(C)(C)OC3CC(=O)OC23C(=O)NC(CC(C)C)C3C1C (stereo not shown) [NCGC00381131-01] | -3 | -69.811 | 1.42e-05 M | 1.42e-05 M | –
C=C1C(=O)O[C@@H]2C(OC(=O)/C(C)=C\C)/C(C)=C\C(=O)/C=C(\C)C[C@H](O)[C@@H]12 (stereo partly shown) [NCGC00381208-01] | -3 | -35.291 | 5.08e-05 M | 5.08e-05 M | –
CCC(C)C(=O)OC1CC(O)C23C4OCC5(C(O)CC2C1(C)C(O)O4)C3C(=O)CC1(C)C(c2ccoc2)CC2OC215 (stereo not shown) [NCGC00381227-01] | – | – | – | – | AC50 [2]: 6.32e-06 M; AC50 [3]: 6.32e-06 M; CC-v2 (curve class classification of the dose response curve) (curve class v2 (Inglese et al. 2006)): -2.2; Efficacy [4]: -29.737
CC(=O)OC[C@]12C[C@H](OC(C)=O)C(C)=C[C@H]1O[C@@H]1[C@H](O)[C@@H](O)[C@@]2(C)[C@]12CO2 [NCGC00381306-01] | – | -39.385 | – | – | Log AC50 (M): -5.644 M; Max Resp: -23.356; AC50 (read-out: AC50): 2.27e-06 M
